One assay concerns MGLL. Description: Expression of MGLL in rat sebaceous gland (epidermal split) after topical PPARgamma agonist treatment, real-time PCR. It is filed as in vivo. To be noted: female FUZZY rats, topical 1% in acetone, standardized to 18S, versus carrier group. The text has this: • Strain: Ico:Hsd:FUZZY-fz • Gender: female • Age: 10 weeks Number per batch: 40 (8 animals per group) Treatment: Route of administration: topical • Compound/batch: PPARgamma agonists: • A: 5-{4-[2-(methylpyridin-2-ylamino)ethoxy]-benzyl}thiazolidine-2,4-dione • B: (2-methoxyethoxymethoxy)naphthalene-2-carboxylic acid [4′-(2,4-dioxothiazolidin-5-ylmethyl)biphenyl-3-ylmethyl]methylamide or rosiglitazone • C: (S)-2-ethoxy-3-{4-[6-(3-heptyl-1-methyl-ureido)pyridin-2-yl)phenyl}propionic acid • Doses: 1% • Carrier: acetone (001) • Duration 96 hours Method of evaluation: The animals are weighed at the beginning and at the end of the study. Skin biopsies are taken (6 samples of skin excised per rat) in order to analyse the expression of the genes (RNA extraction, reverse transcriptase and real-time PCR). The samples are stored overnight at 4° C. before incubation in 1M sodium bromide (NaBr) for 2 hours at 37° C. After incubation, the samples are separated into epidermis or dermis. The epidermal samples are stored at 20° C. […] PCRs are carried out, beginning with the cDNAs originating from the epidermal splits containing sebaceous glands from control rats or rats treated with a PPARγ agonist: the mRNA is extracted using a column and quantified. The quality of the mRNAs is measured and is represented by the 18S/28S ratio. The results are standardized with respect to 18S, expressed as relative induction versus untreated animals (carrier group). The statistical analysis is obtained using internal software based on a modified Monte Carlo statistical analysis.
On the technique in general: In qPCR the cycle at which signal appears reflects the starting amount.

Assay [1] relates to Monoglyceride lipase (MGLL). In words: Expression of MGLL in Fuzzy rat epidermal split after topical treatment (Affymetrix transcriptome analysis). The assay is classed as in vivo. Particulars: female FUZZY rats, topical 1% once a day for 8 days, Affymetrix 1388644_at, control condition 214. The protocol:
The studies are carried out in female Fuzzy rats (Hsd: Fuzzy-fz) ten weeks old at the beginning of the study. The animals are treated at a dose of 1% (PPARg agonist rosiglitazone in solution in acetone) once a day for 8 days. Two hours after the final treatment, the animals are sacrificed by euthanasia and the skin on the back is removed. After incubation in dispase, the epidermis carrying the sebaceous glands is detached from the dermis (epidermal split). After grinding of the samples, the mRNA is prepared using Qiagen columns, in accordance with the supplier's instructions. The material thus prepared is subjected to large-scale transcriptome analysis on an Affymetrix platform. The data are subsequently standardized and, after statistical analysis, the results produced are expressed in arbitrary expression units (see below) accompanied, for each piece of data, by a statistical value for presence of the transcript (presence=1; absence=0).

On to `CN(CCOc1ccc(CC2SC(=O)NC2=O)cc1)c1ccccn1` (stereo not shown) [A, 5-{4-[2-(methylpyridin-2-ylamino)ethoxy]-benzyl}thiazolidine-2,4-dione], for which, in the assay on MGLL, the “MGLL relative induction, 0 hours” value is on record as 1; the “MGLL relative induction, 8 hours” value is on record as 2.37; the “MGLL relative induction, 24 hours” value was 5.06; the “MGLL relative induction, 48 hours” value came to 3.13. Also, in the assay on MGLL, the “MGLL relative induction, 96 hours” value is 5.76.
For `CCCCCCCNC(=O)N(C)c1cccc(-c2ccc(C[C@H](OCC)C(=O)O)cc2)n1` [C, (S)-2-ethoxy-3-{4-[6-(3-heptyl-1-methyl-ureido)pyridin-2-yl)phenyl}propionic acid] the same measures were 1, 5.01, 3.90, 3.88 and 3.86.
As to `CN(CCOc1ccc(CC2SC(=O)NC2=O)cc1)c1ccccn1` (stereo not shown) [rosiglitazone], in assay [1], the “Expression after treatment with 1% rosiglitazone” value is given as 576 arbitrary expression units.
As to “(2-methoxyethoxymethoxy)naphthalene-2-carboxylic acid [4′-(2,4-dioxothiazolidin-5-ylmethyl)biphenyl-3-ylmethyl]methylamide”, in the assay on MGLL, the “MGLL relative induction, 0 hours” value came to 1; the “MGLL relative induction, 8 hours” value came to 1.17; the “MGLL relative induction, 24 hours” value is 2.21; the “MGLL relative induction, 48 hours” value is listed as 3.12. Moreover, the “MGLL relative induction, 96 hours” value in the assay with MGLL is on record as 1.61.

Values taken from patent US20110262450A1, “MODULATORS OF MONOGLYCERIDE LIPASE IN THE TREATMENT OF ACNE, OF SEBORRHOEIC DERMATITIS OR OF HYPERSEBORRHOEA” (priority 2008, published 2011).
